Consider 4 molecules from ChEMBL document CHEMBL5143607, “Discovery and structure-activity relationships of a novel oxazolidinone class of bacterial type II topoisomerase inhibitors” (Bioorg Med Chem Lett, 2022).

SMILES strings stand for the structures. ≈ marks a conversion by molar mass, not a printed value. Where only a bound is given, the exact number is not on record here.

One data set has as its target DNA gyrase (Escherichia coli, UniProt P0AES4+P0AES6). Kind of data set: Inhibition of Escherichia coli DNA gyrase supercoiling activity. In kind it is protein-complex assay.
The nature of data set [1]: Inhibition of Escherichia coli topoisomerase 4 assessed as reduction in decatenation.
Data set [2] is described as follows: Cytotoxicity against human HepG2 cells assessed as reduction in cell viability for 24 hrs by Celltiter-Glo assay. In kind it is toxicity, cell-based. In general terms: ATP-based viability assays read luminescence as a measure of living cells.
Another data set relates to Acinetobacter baumannii. Kind of data set: Antibacterial activity against Acinetobacter baumannii NCTC 13420 assessed as bacterial growth inhibition by CLSI protocol based assay. In kind it is functional.
The next data set deals with Klebsiella pneumoniae. Kind of data set: Antibacterial activity against Klebsiella pneumoniae ATCC 700603 assessed as bacterial growth inhibition by CLSI protocol based assay. In kind it is functional.
Another data set relates to Pseudomonas aeruginosa. Kind of data set: Antibacterial activity against Pseudomonas aeruginosa ATCC 27853 assessed as bacterial growth inhibition by CLSI protocol based assay. The format is functional.
Data set [3] concerns Escherichia coli. Kind of data set: Antibacterial activity against Escherichia coli W4573 assessed as bacterial growth inhibition by CLSI protocol based assay. In kind it is functional.
Data set [4] has as its system Escherichia coli. Nature of the data set: Antibacterial activity against Escherichia coli N43 assessed as bacterial growth inhibition by CLSI protocol based assay. In kind it is functional.
The subject of the next data set is Staphylococcus aureus. Nature of the data set: Antibacterial activity against Staphylococcus aureus ATCC 29213 assessed as bacterial growth inhibition by CLSI protocol based assay. The format is functional.
The target of data set [5] is Voltage-gated inwardly rectifying potassium channel KCNH2 (Homo sapiens, UniProt Q12809). Kind of data set: Inhibition of human ERG by Ionworks electrophysiology assay. In kind it is toxicity. For orientation: The patch-clamp technique gives a direct electrical read-out from membranes.
Voltage-gated inwardly rectifying potassium channel KCNH2, sequence (Q12809 whole entry): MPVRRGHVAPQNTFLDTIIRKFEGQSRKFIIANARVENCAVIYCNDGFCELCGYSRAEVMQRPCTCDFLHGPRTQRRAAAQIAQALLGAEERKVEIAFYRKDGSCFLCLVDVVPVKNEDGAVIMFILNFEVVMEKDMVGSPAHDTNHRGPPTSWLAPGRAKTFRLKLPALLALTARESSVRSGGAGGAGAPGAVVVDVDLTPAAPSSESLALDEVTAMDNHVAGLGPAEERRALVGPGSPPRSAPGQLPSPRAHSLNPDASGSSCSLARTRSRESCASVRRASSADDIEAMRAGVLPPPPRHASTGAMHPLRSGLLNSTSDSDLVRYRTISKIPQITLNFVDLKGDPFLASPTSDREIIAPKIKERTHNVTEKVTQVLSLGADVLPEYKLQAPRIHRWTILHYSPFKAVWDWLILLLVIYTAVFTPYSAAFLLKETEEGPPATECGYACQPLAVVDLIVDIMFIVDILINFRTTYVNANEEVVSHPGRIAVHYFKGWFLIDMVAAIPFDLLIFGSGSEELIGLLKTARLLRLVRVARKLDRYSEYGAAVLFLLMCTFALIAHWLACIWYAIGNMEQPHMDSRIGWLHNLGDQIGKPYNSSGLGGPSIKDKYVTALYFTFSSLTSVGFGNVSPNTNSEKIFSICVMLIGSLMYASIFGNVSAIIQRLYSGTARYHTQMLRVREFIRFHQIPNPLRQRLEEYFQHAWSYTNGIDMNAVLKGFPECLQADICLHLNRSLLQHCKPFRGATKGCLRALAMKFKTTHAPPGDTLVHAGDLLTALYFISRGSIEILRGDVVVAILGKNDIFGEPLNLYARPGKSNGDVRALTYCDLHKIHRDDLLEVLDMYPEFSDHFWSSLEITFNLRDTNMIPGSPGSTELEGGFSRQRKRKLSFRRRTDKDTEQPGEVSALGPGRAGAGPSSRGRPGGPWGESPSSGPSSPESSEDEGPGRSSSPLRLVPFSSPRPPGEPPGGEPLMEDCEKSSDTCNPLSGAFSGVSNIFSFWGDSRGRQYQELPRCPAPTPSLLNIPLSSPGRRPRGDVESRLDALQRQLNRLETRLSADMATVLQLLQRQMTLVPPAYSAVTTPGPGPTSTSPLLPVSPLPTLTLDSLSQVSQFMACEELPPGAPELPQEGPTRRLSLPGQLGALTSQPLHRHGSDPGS
The nature of data set [6]: Lipophilicity, logD of the compound by shake flask assay. The format is physicochemical. Conditions: octanol/water.
The nature of data set [7]: Intrinsic clearance in mouse liver microsomes in presence of NADPH and measured upto 45 mins. Conditions: read-out: CLH. The format is ADME, Microsome. Background: Liver microsomes are vesicles of endoplasmic reticulum, rich in cytochrome P450 enzymes.
Data set [8] is described as follows: Intrinsic clearance in human liver microsomes in presence of NADPH and measured upto 45 mins. The format is ADME, Microsome. As to conditions: read-out: CLH.
Data set [9] is described as follows: Kinetic solubility of compound. In kind it is physicochemical. Conditions: read-out: Kinetic_solubility.
Data set [10] in a line: Plasma protein binding in mouse assessed as free fraction by equilibrium dialysis assay. The format is ADME, cell-free.
Data set [11] addresses DNA topoisomerase 2-alpha (Homo sapiens, UniProt P11388). Kind of data set: Inhibition of human topoisomerase 2 assessed as reduction in decatenation.
In data set [12] the test system is Escherichia coli. Kind of data set: Resistance development in Escherichia coli ATCC25922 assessed as spontaneous resistance frequency at 4 times MIC by resistance development assay. The format is functional.
The subject of data set [13] is Escherichia coli. Kind of data set: Antibacterial activity against Escherichia coli ATCC25922 assessed as bacterial growth inhibition by CLSI protocol based assay. In kind it is functional.
A short description of data set [14]: Protein binding in mouse plasma by equilibrium dialysis assay. The format is ADME, cell-free. As to conditions: read-out: PPB (converted).
Data set [15] can be described thus: Protein binding in human plasma by equilibrium dialysis assay. The format is ADME, cell-free. As to conditions: read-out: PPB (converted).

DNA topoisomerase 2-alpha, sequence (P11388 whole entry): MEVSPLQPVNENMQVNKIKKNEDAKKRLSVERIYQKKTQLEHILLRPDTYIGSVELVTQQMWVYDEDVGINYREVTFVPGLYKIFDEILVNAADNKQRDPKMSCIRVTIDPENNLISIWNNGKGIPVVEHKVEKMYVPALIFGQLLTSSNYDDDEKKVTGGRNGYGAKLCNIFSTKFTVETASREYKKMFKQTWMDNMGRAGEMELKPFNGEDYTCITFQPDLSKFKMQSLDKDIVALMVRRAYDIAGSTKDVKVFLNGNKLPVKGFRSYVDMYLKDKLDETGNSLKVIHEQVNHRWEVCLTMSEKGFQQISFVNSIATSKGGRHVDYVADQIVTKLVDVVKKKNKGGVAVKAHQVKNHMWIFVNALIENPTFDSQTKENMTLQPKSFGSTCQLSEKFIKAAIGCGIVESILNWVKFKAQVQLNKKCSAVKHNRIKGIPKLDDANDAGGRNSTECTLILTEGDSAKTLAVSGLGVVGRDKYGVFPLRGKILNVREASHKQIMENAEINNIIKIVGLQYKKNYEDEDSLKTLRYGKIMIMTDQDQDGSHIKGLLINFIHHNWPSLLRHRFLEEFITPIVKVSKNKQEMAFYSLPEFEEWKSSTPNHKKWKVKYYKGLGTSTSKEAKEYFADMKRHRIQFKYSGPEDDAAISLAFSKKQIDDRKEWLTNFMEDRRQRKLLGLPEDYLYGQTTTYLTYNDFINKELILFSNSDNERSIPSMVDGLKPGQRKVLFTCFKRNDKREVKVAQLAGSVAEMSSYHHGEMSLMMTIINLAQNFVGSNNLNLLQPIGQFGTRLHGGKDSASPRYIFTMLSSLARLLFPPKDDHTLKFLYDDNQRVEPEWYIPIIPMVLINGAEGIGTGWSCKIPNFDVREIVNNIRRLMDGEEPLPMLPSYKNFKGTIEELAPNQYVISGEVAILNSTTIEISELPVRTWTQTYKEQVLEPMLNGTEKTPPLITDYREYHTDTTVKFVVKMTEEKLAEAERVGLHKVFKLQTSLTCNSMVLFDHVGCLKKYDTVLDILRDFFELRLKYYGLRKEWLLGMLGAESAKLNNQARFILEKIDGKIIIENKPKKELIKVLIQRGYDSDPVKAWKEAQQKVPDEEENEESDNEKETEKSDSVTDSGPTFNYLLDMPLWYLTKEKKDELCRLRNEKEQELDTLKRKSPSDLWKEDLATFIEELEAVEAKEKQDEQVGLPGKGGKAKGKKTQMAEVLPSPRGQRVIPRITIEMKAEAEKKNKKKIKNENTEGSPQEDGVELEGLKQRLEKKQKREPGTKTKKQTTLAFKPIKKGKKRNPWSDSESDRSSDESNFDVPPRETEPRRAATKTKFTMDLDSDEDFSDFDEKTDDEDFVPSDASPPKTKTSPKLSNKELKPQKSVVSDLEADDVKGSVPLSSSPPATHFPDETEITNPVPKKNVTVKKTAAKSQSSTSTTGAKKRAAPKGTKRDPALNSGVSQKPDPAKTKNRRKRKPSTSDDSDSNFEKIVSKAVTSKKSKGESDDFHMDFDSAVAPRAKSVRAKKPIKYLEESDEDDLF

In the case of `N#Cc1cnc2ccc(=O)n(CCCN[C@H]3CC[C@H]4[C@H](C3)OC(=O)N4c3ccc4c(n3)NC(=O)CO4)c2c1`, the IC50 – broadly, the concentration that inhibits the measured activity by half – against DNA gyrase was 0.34 µM; in data set [1] it was 4.24 µM; in data set [5], above 100 µM; in data set [11] it was above 100 µM. In addition, the IC50 at 24 h in data set [2] was above 32 µg/mL. Further, the MIC (commonly the lowest concentration that inhibits growth of the organism) in the data set on Acinetobacter baumannii was 2 µg/mL (≈ 3.88 µM); in the data set with Klebsiella pneumoniae it was 8 µg/mL (≈ 15.5 µM); with Pseudomonas aeruginosa, 2 µg/mL (≈ 3.88 µM); in the data set on Escherichia coli [3] it was 0.25 µg/mL (≈ 0.485 µM); with Escherichia coli [4], 0.015 µg/mL (≈ 0.0291 µM); with Staphylococcus aureus it was 0.5 µg/mL (≈ 0.97 µM). In [6], the log distribution coefficient (logD) (commonly lipophilicity at a set pH, counting ionised and neutral species) worked out at 0.5. For the same molecule, the microsomal CLint in data set [7] and in data set [8] was below 3 µL/min/mg throughout. Further, in [9], the solubility kinetic was 86 µM (≈ 44.3 µg/mL). In addition, in data set [10], the fraction unbound was above 0.3. For the same molecule, the Activity in the data set with Escherichia coli [12] is listed as 7.8 10^-8No_unit.

For the molecule `COc1ccc2ccc(=O)n(CCN[C@H]3CC[C@H]4[C@H](C3)OC(=O)N4c3ccc4c(n3)NC(=O)CS4)c2n1`, the IC50 on DNA gyrase is 0.105 µM; in data set [1] it was 0.024 µM; in data set [5], 4 µM; in data set [11], above 100 µM. In addition, the concentration for half-maximal inhibition (IC50) at 24 h in data set [2] worked out at 35 µg/mL (≈ 67 µM). The MIC with Acinetobacter baumannii is 0.015 µg/mL (≈ 0.0287 µM); in the data set with Klebsiella pneumoniae it was 2 µg/mL (≈ 3.83 µM); in the data set with Pseudomonas aeruginosa it was 1 µg/mL (≈ 1.91 µM); in the data set with Escherichia coli [3], 0.12 µg/mL (≈ 0.23 µM); with Escherichia coli [4], at most 0.002 µg/mL; in the data set on Staphylococcus aureus, at most 0.002 µg/mL. In addition, the MIC in the data set with Escherichia coli [13] turned out to be 0.06 µg/mL (≈ 0.115 µM). The molecule also displayed a logD in data set [6] of 2.58. Also, the microsomal CLint is above 277 µL/min/mg in [7] and 267 µL/min/mg in data set [8]. The solubility kinetic in [9] amounted to 54 µM (≈ 28.2 µg/mL). Besides, the fraction unbound in data set [10] was 0.09.

Turning to `COc1ccc2ccc(=O)n(CCN[C@@H]3CC[C@@H]4[C@H](C3)OC(=O)N4c3ccc4c(n3)NC(=O)CO4)c2n1`, in [2], the IC50 at 24 h was above 32 µg/mL. The minimum inhibitory concentration (MIC) worked out at 1 µg/mL (≈ 1.97 µM) with Acinetobacter baumannii; 8 µg/mL (≈ 15.8 µM) with Klebsiella pneumoniae; 4 µg/mL (≈ 7.9 µM) in the data set with Pseudomonas aeruginosa; 0.25 µg/mL (≈ 0.494 µM) with Escherichia coli [3]; 0.004 µg/mL (≈ 0.0079 µM) with Escherichia coli [4]; 0.008 µg/mL (≈ 0.0158 µM) in the data set with Staphylococcus aureus. The molecule further returned an IC50 in [5] of 5 µM. Besides, the logD in data set [6] was 2. In addition, the fraction unbound was 0.873 in data set [14] and 0.965 in [15].

With `N#Cc1ccc2ccc(=O)n(CCN[C@H]3CC[C@H]4[C@H](C3)OC(=O)N4c3ccc4c(n3)NC(=O)CO4)c2c1`, the IC50 on DNA gyrase is 0.03 µM; in data set [1], 0.23 µM; in [5], above 100 µM; in data set [11], 72.8 µM. In addition, the IC50 at 24 h in [2] is above 128 µg/mL. Also, the MIC with Acinetobacter baumannii was 0.25 µg/mL (≈ 0.499 µM); with Klebsiella pneumoniae, 2 µg/mL (≈ 4 µM); in the data set on Pseudomonas aeruginosa it was 2 µg/mL (≈ 4 µM); in the data set with Escherichia coli [3], 0.03 µg/mL (≈ 0.0599 µM); in the data set with Escherichia coli [4], at most 0.002 µg/mL; with Staphylococcus aureus it was 0.03 µg/mL (≈ 0.0599 µM). The MIC in the data set on Escherichia coli [13] is 0.25 µg/mL (≈ 0.499 µM). For the same molecule, the logD in data set [6] was 1.51. Further, the microsomal CLint came to 125 µL/min/mg in data set [7] and 59 µL/min/mg in data set [8]. Moreover, in data set [9], the solubility kinetic is 62 µM (≈ 31 µg/mL). The fraction unbound in data set [10] was above 0.3. Besides, in the data set on Escherichia coli [12], the Activity is on record as <7.1 10^-9No_unit.
